Results reported in US8192962B2, “Processes for detecting toxic substances” (Daikin Industries, Ltd., priority 2001, dated 2012).

Test system: Genes belonging to other category
Assay: DNA chip mRNA expression in yeast, genes belonging to other category (Table 9)
Format: cell-based, Saccharomyces cerevisiae S288C
Procedure: Yeast (Saccharomyces cerevisiae S288C (α SUC2mal mel gap2 CUP1)) were incubated at 25° C. on YPD medium (yeast extract 1%, polypepton 2%, glucose 2%). One of toxic chemical substances was added to the cells at logarithmic growth phase, and the cells were further incubated for two hours. Cells were cultured without any chemical substance in the same condition, and were used as control. Concentrations of the chemical substances were defined to inhibit the growth of the yeast but not lead to death.
After completion of the incubation, the culture was centrifuged to collect the cells. To the cells, sodium acetate buffer (50 mM sodium acetate, 10 mM EDTA, 1% SDS) was added, and the mixture was shaken at 65° C. for five minutes, followed by returning to room temperature, and obtaining the supernatant, of which the procedures were repeated two times. To the supernatant, ½ amount of a solution of phenol/chloroform was added, and the mixture was centrifuged to give a supernatant, which was added with an equal amount of chloroform, and the mixture was centrifuged to give a supernatant. To the supernatant, an equal amount of isopropanol containing 0.3 M sodium acetate was added, and the mixture was allowed to stand at room temperature for 30 minutes, after which the mixture was centrifuged to give a sediment of the whole RNAs. Seventy % ethanol was added to the sediment, and the mixture was again centrifuged to give a sediment, which was then dried and dissolved in water. mRNA was isolated from the whole RNAs as followings. In view of the fact that a poly A chain is attached to the 3′ terminus of mRNA, a polynucleotide having a poly T structure which was immobilized on the surface of latex beads was used to trap the mRNA, and then the mRNA was washed and eluted with spine column (Oligotex-dT30<Super>mRNA Purification Kit, Takara). Reverse transcription of the mRNA was conducted with a reverse transcriptase (Super Script II Reverse Transcriptase; catalogue No. 18064-014, GibcoBRL) using fluorescence-labeled nucleotides to give cDNAs that were introduced with Cy3-dUTP or Cy5-dUTP during the reverse transcription.
The labeled cDNAs were dissolved in TE buffer (10mM Tris-HCl/1 mM EDTA, pH8.0), and the solution was dropped on the DNA chip containing the whole genes of yeast (DNA Chip Research Inc. Japan) so that the cDNAs were hybridized on the DNA chip at 65° C. for over 12 hours. The fluoresces intensity of the DNA chip was read with a scanner, and the ratio relative to the fluorescence intensity resulting from the absence of chemical substance was estimated as the following, which is shown in Tables 1 to 9: […]

[Cl][Hg][Cl] [(3), HgCl2]
The level of expressed mRNA in the presence of chemical substance/The level of expressed mRNA in the absence of chemical substance (yeast gene YAR010C): 1.2 | The level of expressed mRNA in the presence of chemical substance/The level of expressed mRNA in the absence of chemical substance (yeast gene YBL005W-A): 0.5 | The level of expressed mRNA in the presence of chemical substance/The level of expressed mRNA in the absence of chemical substance (yeast gene YBL041W): 0.9 | The level of expressed mRNA in the presence of chemical substance/The level of expressed mRNA in the absence of chemical substance (yeast gene YBL043W): 1.1 | The level of expressed mRNA in the presence of chemical substance/The level of expressed mRNA in the absence of chemical substance (yeast gene YBL078C): 1.3 | The level of expressed mRNA in the presence of chemical substance/The level of expressed mRNA in the absence of chemical substance (yeast gene YBR214W): 5.7 | The level of expressed mRNA in the presence of chemical substance/The level of expressed mRNA in the absence of chemical substance (yeast gene YCL020W): 0.5 | The level of expressed mRNA in the presence of chemical substance/The level of expressed mRNA in the absence of chemical substance (yeast gene YCL027W): 1.0 | The level of expressed mRNA in the presence of chemical substance/The level of expressed mRNA in the absence of chemical substance (yeast gene YCR004C): 12.0 | The level of expressed mRNA in the presence of chemical substance/The level of expressed mRNA in the absence of chemical substance (yeast gene YCR071C): 0.9 | The level of expressed mRNA in the presence of chemical substance/The level of expressed mRNA in the absence of chemical substance (yeast gene YCR088W): 1.2 | The level of expressed mRNA in the presence of chemical substance/The level of expressed mRNA in the absence of chemical substance (yeast gene YDL008W): 1.0 | The level of expressed mRNA in the presence of chemical substance/The level of expressed mRNA in the absence of chemical substance (yeast gene YDL238C): 1.1 | The level of expressed mRNA in the presence of chemical substance/The level of expressed mRNA in the absence of chemical substance (yeast gene YDR055W): 2.2 | The level of expressed mRNA in the presence of chemical substance/The level of expressed mRNA in the absence of chemical substance (yeast gene YDR084C): 1.5 | The level of expressed mRNA in the presence of chemical substance/The level of expressed mRNA in the absence of chemical substance (yeast gene YDR085C): 1.6 | The level of expressed mRNA in the presence of chemical substance/The level of expressed mRNA in the absence of chemical substance (yeast gene YDR104C): 1.2 | The level of expressed mRNA in the presence of chemical substance/The level of expressed mRNA in the absence of chemical substance (yeast gene YDR115W): 0.6 | The level of expressed mRNA in the presence of chemical substance/The level of expressed mRNA in the absence of chemical substance (yeast gene YDR259C): 0.4 | The level of expressed mRNA in the presence of chemical substance/The level of expressed mRNA in the absence of chemical substance (yeast gene YDR315C): 1.0 | The level of expressed mRNA in the presence of chemical substance/The level of expressed mRNA in the absence of chemical substance (yeast gene YDR358W): 0.7 | The level of expressed mRNA in the presence of chemical substance/The level of expressed mRNA in the absence of chemical substance (yeast gene YDR388W): 1.2 | The level of expressed mRNA in the presence of chemical substance/The level of expressed mRNA in the absence of chemical substance (yeast gene YDR432W): 1.0 | The level of expressed mRNA in the presence of chemical substance/The level of expressed mRNA in the absence of chemical substance (yeast gene YDR481C): 1.3 | The level of expressed mRNA in the presence of chemical substance/The level of expressed mRNA in the absence of chemical substance (yeast gene YDR510W): 1.5 | The level of expressed mRNA in the presence of chemical substance/The level of expressed mRNA in the absence of chemical substance (yeast gene YEL042W): 1.7 | The level of expressed mRNA in the presence of chemical substance/The level of expressed mRNA in the absence of chemical substance (yeast gene YEL066W): 1.5 | The level of expressed mRNA in the presence of chemical substance/The level of expressed mRNA in the absence of chemical substance (yeast gene YER039C): 1.0 | The level of expressed mRNA in the presence of chemical substance/The level of expressed mRNA in the absence of chemical substance (yeast gene YER107C): 1.0 | The level of expressed mRNA in the presence of chemical substance/The level of expressed mRNA in the absence of chemical substance (yeast gene YER130C): 0.5 | The level of expressed mRNA in the presence of chemical substance/The level of expressed mRNA in the absence of chemical substance (yeast gene YFL022C): 1.5 | The level of expressed mRNA in the presence of chemical substance/The level of expressed mRNA in the absence of chemical substance (yeast gene YFL028C): 0.7 | The level of expressed mRNA in the presence of chemical substance/The level of expressed mRNA in the absence of chemical substance (yeast gene YFL043C): 0.6 | The level of expressed mRNA in the presence of chemical substance/The level of expressed mRNA in the absence of chemical substance (yeast gene YGL158W): 1.9 | The level of expressed mRNA in the presence of chemical substance/The level of expressed mRNA in the absence of chemical substance (yeast gene YGL229C): 0.9 | The level of expressed mRNA in the presence of chemical substance/The level of expressed mRNA in the absence of chemical substance (yeast gene YGR136W): 1.3 | The level of expressed mRNA in the presence of chemical substance/The level of expressed mRNA in the absence of chemical substance (yeast gene YGR189C): 1.5 | The level of expressed mRNA in the presence of chemical substance/The level of expressed mRNA in the absence of chemical substance (yeast gene YGR213C): 1.0 | The level of expressed mRNA in the presence of chemical substance/The level of expressed mRNA in the absence of chemical substance (yeast gene YGR257C): 0.9 | The level of expressed mRNA in the presence of chemical substance/The level of expressed mRNA in the absence of chemical substance (yeast gene YHR004C): 0.8 | The level of expressed mRNA in the presence of chemical substance/The level of expressed mRNA in the absence of chemical substance (yeast gene YHR071W): 0.6 | The level of expressed mRNA in the presence of chemical substance/The level of expressed mRNA in the absence of chemical substance (yeast gene YHR139C): 6.8 | The level of expressed mRNA in the presence of chemical substance/The level of expressed mRNA in the absence of chemical substance (yeast gene YHR142W): 2.1 | The level of expressed mRNA in the presence of chemical substance/The level of expressed mRNA in the absence of chemical substance (yeast gene YIL123W): 1.2 | The level of expressed mRNA in the presence of chemical substance/The level of expressed mRNA in the absence of chemical substance (yeast gene YIL140W): 1.5 | The level of expressed mRNA in the presence of chemical substance/The level of expressed mRNA in the absence of chemical substance (yeast gene YJL073W): 2.5 | The level of expressed mRNA in the presence of chemical substance/The level of expressed mRNA in the absence of chemical substance (yeast gene YJL089W): 1.0 | The level of expressed mRNA in the presence of chemical substance/The level of expressed mRNA in the absence of chemical substance (yeast gene YJL116C): 1.3 | The level of expressed mRNA in the presence of chemical substance/The level of expressed mRNA in the absence of chemical substance (yeast gene YJR004C): 3.4 | The level of expressed mRNA in the presence of chemical substance/The level of expressed mRNA in the absence of chemical substance (yeast gene YJR086W): 0.8
